Results taken from patent US20250032623A1, “HETEROBIFUNCTIONAL COMPOUNDS AND THEIR USE IN TREATING DISEASE” (HALDA THERAPEUTICS OPCO, INC., priority 2021, published 2025).

What was measured:
EGFR = biological target: T1, EGFR (Homo sapiens, UniProt P00533); assay: KdELECT binding assay, EGFR
T1 construct: purchased
Outline: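 Competition binding: DNA- or T7 phage-tagged EGFR was incubated 1 h at room temperature with immobilized ligand beads and an 11-point 3-fold compound series (0.9% DMSO final). Bead-bound kinase was eluted and quantified by qPCR to derive Kd.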

[1] = biological target: T2, EGFR T790M, L858R (amino acids 669-1011 Accession Number NP_005219.2) (Homo sapiens, UniProt P00533, L858R/T790M); assay: KdELECT binding assay (Eurofins Discovery), EGFR T790M, L858R; settings: read-out: EGFR DM Kd
T2 construct: purchased Eurofins Discovery; host or cells: mammalian cells (HEK-293)
Outline: (§1)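 Competition binding: WT kinase as T7 phage fusion from E. coli, T790M/L858R produced in HEK-293 and DNA-tagged, incubated 1 h at room temperature with immobilized ligand beads and compound (11-point 3-fold series, 0.9% DMSO). Bead-bound kinase eluted and quantified by qPCR to derive Kd.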

[2] = biological target: T3, EGFR WT (amino acids 669-1011, Accession Number NP_005219.2) (Homo sapiens, UniProt P00533); assay: KdELECT binding assay (Eurofins Discovery), EGFR WT
T3 construct: purchased Eurofins Discovery; host or cells: bacteria (E. coli, BL21-derived, T7 phage)
Outline: as §1

[3] = biological target: T4, full-length CDK9 (amino acids 1-372; Accession Number NP_001252.1) (Homo sapiens, UniProt P50750); assay: KdELECT binding assay, CDK9
T4 construct: full-length CDK9 (amino acids 1-372); purchased; host or cells: bacteria (E. coli, BL21-derived, T7 phage)
Description: Exemplary compounds were tested for ability to bind to full-length CDK9 (amino acids 1-372; Accession Number NP_001252.1) expressed from bacteria. Compounds were tested using a KdELECT assay.
Kinase-tagged T7 phage strains were prepared in an E. coli host derived from the BL21 strain. E. coli were grown to log-phase and infected with T7 phage and incubated with shaking at 32° C. until lysis. The lysates were centrifuged and filtered to remove cell debris. The remaining kinases were produced in HEK-293 cells and subsequently tagged with DNA for qPCR detection. Streptavidin-coated magnetic beads were treated with biotinylated small molecule ligands for 30 minutes at room temperature to generate affinity resins for kinase assays. The liganded beads were blocked with excess biotin and washed with blocking buffer (SeaBlock (Pierce), 1% BSA, 0.05% Tween 20, 1 mM DTT) to remove unbound ligand and to reduce non-specific binding. Binding reactions were assembled by combining kinases, liganded affinity beads, and test compounds in 1× binding buffer (20% SeaBlock, 0.17×PBS, 0.05% Tween 20, 6 mM DTT). Test compounds were prepared as 111× stocks in 100% DMSO. Kd values were determined using an 11-point 3-fold compound dilution series with three DMSO control points. All compounds for Kd measurements are distributed by acoustic transfer (non-contact dispensing) in 100% DMSO. The compounds were then diluted directly into the assays such that the final concentration of DMSO was 0.9%. All reactions performed in polypropylene 384-well plate. Each was a final volume of 0.02 mL. The assay plates were incubated at room temperature with shaking for 1 hour and the affinity beads were washed with wash buffer (1×PBS, 0.05% Tween 20). The beads were then re-suspended in elution buffer (1×PBS, 0.05% Tween 20, 0.5 μM nonbiotinylated affinity ligand) and incubated at room temperature with shaking for 30 minutes. The kinase concentration in the eluates was measured by qPCR.

HEK293 cells = assay: Cellular growth inhibition assay (CellTiter-Glo), HEK293 cells; assay type: cell-based; settings: Homo sapiens, 72 h, three days compound treatment, CellTiter-Glo 2.0, read-out: CTG HEK293 GI50
Outline: (§2)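 HEK293 or HeLa cells seeded at 500 cells/well in DMEM with 10% FBS, treated after 24 h with titrated compound for three days at 37 °C, 5% CO2. CellTiter-Glo 2.0 luminescence read on Day 0 and Day 3, normalized to DMSO, four-parameter fit giving GI50.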

HeLa cells = assay: Cellular growth inhibition assay (CellTiter-Glo), HeLa cells; assay type: cell-based; settings: Homo sapiens, 72 h, three days compound treatment, CellTiter-Glo 2.0, read-out: CTG HELA GI50
Outline: as §2

KRAS G12C = biological target: T5, KRAS G12C (Homo sapiens, UniProt P01116, G12C); assay: KRAS G12C nucleotide exchange assay (SOS1 mediated, HTRF); assay type: biochemical; settings: 1 hr pre-incubation at RT, read-out: IC50 (inhibition of KRas G12C)
T5 construct: Kras (aa 2-169), GST; purchased Reaction Biology Corporation (RBC)
Description: Exemplary compounds were tested for ability to inhibit KRas G12C.
KRAS target engagement (IC50 determination) was performed using a KRAS G12C nucleotide exchange assay (Reaction Biology Corporation). Specifically, compounds were tested against KRAS G12C in 10-point concentration IC50 mode with 3-fold serial dilution at a starting concentration of 10 μM. ARS1620 was used as a control. Compounds were pre-incubated with protein for 1 hr at RT. Parameters for the assay were:
In the method, Kras was mixed with a-GST Tb antibody (1.5× solution) and […] was delivered to reaction wells. Compounds were delivered using acoustic dispenser (Echo, Labcyte). Kras/aGST-Tb Ab/compound mixture was incubated for 1 hour at room temperature. A 3× solution of SOS1 and GTP* was prepared in reaction buffer. A […] aliquot of SOS1/GTP* solution was added to reaction well to initiate the exchange reaction. No—SOS1 reaction or max compound concentration was used as blank. IC50 determination was performed using a Sigmoidal dose response (variable slope) equation.

T2 sequence (P00533 669-1011 T790M/L858R): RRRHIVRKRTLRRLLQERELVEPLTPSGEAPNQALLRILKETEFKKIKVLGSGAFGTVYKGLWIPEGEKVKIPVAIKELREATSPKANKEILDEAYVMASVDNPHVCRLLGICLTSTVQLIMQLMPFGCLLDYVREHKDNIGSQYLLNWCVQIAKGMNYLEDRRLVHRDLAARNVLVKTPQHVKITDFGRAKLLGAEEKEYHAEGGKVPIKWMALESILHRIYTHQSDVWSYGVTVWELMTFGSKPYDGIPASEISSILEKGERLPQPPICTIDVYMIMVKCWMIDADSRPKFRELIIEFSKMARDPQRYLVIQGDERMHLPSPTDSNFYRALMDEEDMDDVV
T1 sequence (P00533 25-1210): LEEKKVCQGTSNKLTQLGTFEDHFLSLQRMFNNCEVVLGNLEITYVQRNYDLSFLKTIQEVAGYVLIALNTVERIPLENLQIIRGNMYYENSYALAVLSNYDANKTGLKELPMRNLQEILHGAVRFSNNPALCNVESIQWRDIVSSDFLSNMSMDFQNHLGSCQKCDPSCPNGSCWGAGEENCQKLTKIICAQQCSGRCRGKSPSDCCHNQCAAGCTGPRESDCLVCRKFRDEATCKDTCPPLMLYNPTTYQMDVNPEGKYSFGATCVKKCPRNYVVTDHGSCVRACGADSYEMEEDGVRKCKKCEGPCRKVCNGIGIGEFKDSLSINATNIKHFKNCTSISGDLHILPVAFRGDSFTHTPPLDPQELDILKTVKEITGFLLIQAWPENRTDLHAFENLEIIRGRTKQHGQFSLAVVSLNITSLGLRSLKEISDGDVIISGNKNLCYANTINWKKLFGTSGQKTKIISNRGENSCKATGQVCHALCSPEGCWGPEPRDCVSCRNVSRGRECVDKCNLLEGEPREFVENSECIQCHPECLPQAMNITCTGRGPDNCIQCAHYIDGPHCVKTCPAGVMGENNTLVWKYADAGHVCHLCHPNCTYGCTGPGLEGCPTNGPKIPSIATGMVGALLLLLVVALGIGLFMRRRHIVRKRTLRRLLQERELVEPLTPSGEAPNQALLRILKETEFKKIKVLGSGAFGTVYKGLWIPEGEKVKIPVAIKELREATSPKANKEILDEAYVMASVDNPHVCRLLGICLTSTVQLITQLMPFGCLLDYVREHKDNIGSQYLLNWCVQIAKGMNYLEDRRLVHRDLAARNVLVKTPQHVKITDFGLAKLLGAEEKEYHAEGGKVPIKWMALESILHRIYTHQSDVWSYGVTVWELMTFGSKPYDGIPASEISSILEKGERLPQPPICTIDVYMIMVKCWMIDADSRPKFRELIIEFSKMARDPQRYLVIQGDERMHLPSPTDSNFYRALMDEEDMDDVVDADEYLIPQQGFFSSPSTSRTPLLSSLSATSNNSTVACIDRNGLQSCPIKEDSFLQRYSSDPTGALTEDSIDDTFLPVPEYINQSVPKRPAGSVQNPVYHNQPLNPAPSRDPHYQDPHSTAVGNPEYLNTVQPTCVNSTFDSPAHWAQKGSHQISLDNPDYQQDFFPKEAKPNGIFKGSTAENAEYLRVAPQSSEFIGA
T3 sequence (P00533 669-1011): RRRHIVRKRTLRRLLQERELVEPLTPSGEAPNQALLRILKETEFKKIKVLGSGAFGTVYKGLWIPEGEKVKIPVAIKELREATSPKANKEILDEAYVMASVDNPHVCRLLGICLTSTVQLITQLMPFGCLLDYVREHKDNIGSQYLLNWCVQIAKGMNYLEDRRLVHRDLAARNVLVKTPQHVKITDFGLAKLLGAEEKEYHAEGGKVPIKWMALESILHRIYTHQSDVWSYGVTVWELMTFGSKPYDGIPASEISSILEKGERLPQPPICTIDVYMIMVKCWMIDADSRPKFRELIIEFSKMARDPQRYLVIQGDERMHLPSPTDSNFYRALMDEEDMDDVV
T4 sequence (P50750 whole entry, the tested form may be a part): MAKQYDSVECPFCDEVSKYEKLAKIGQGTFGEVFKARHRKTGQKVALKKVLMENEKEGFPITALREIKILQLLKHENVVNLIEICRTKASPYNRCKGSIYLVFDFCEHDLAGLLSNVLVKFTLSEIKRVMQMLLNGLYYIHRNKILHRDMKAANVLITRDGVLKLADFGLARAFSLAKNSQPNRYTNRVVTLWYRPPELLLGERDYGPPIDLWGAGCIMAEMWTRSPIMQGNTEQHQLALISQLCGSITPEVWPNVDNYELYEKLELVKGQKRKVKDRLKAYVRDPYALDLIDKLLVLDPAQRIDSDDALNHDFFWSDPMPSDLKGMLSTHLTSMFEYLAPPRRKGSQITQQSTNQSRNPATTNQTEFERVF
T5 sequence (P01116 2-169 isoform P01116-2 G12C): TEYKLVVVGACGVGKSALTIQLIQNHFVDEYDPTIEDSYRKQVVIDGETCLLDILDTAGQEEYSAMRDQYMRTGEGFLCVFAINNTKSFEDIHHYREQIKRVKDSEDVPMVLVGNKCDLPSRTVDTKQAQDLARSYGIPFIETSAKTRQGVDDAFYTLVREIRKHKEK

SMILES | Kd (EGFR) [nM] | Kd [1] [nM] | Kd [2] [nM] | Kd [3] [nM] | GI50 (HEK293 cells) [nM] | GI50 (HeLa cells) [nM] | IC50 (KRAS G12C) [nM]
C=CC(=O)Nc1cc(Nc2nccc(-c3cn(C)c4ccccc34)n2)c(OC)cc1N(C)CCN(C)CCOCCOCCNS(=O)(=O)c1ccc(Nc2ncc(Br)c(Nc3cccc(F)c3C(N)=O)n2)cc1 [Compound I-33, 2-[[5-bromo-2-[4-[2-[2-[2-[2-[5-methoxy-N-methyl-4-[[4-(1-methylindol-3-yl)pyrimidin-2-yl]amino]-2-(prop-2-enoylamino)anilino]ethyl-methyl-amino]ethoxy]ethoxy]ethyl-sulfamoyl]anilino]pyrimidin-4-yl]amino]-6-fluoro-benzamide] | < 50 | < 50 | 50 to 500 | 500 to 2500 | – | – | –
CCc1cnn2c(NCc3ccc(OCCOCCOCCOCCOCCOC/C=C/C(=O)N4CCN(c5nc(OC[C@@H]6CCCN6C)nc6c5CCN(c5cccc7cccc(Cl)c57)C6)C[C@@H]4CC#N)nc3)cc(N3CCCCC3CCO)nc12 (stereo partly drawn) [Compound I-86, 2-[(2S)-4-[7-(8-chloro-1-naphthyl)-2-[[(2S)-1-methylpyrrolidin-2-yl]methoxy]-6,8-dihydro-5H-pyrido[3,4-d]pyrimidin-4-yl]-1-[(E)-4-[2-[2-[2-[2-[2-[[5-[[[3-ethyl-5-[2-(2-hydroxyethyl)-1-piperidyl]pyrazolo[1,5-a]pyrimidin-7-yl]amino]methyl]-2-pyridyl]oxy]ethoxy]ethoxy]ethoxy]ethoxy]ethoxy]but-2-enoyl]piperazin-2-yl]acetonitrile] | – | – | – | < 50 | 500 to 1500 | < 500 | 100 to 1000
CCc1cnn2c(NCc3ccc(OCCOCCOCCOC4CCN(C/C=C/C(=O)N5CCN(c6nc(OC[C@@H]7CCCN7C)nc7c6CCN(c6cccc8cccc(Cl)c68)C7)C[C@@H]5CC#N)CC4)nc3)cc(N3CCCC[C@H]3CCO)nc12 [Compound I-90, 2-((S)-4-(7-(8-chloronaphthalen-1-yl)-2-(((S)-1-methylpyrrolidin-2-yl)methoxy)-5,6,7,8-tetrahydropyrido [3,4-d]pyrimidin-4-yl)-1-((E)-4-(4-(2-(2-(2-((5-(((3-ethyl-5-((S)-2-(2-hydroxyethyl)piperidin-1-yl)pyrazolo[1,5-a]pyrimidin-7-yl)amino)methyl)pyridin-2-yl)oxy)ethoxy)ethoxy)ethoxy)piperidin-1-yl)but-2-enoyl)piperazin-2-yl)acetonitrile] | – | – | – | < 50 | < 500 | < 500 | < 100
CC[C@@H]1C(=O)N(C)c2cnc(Nc3ccc(C(=O)NCCOCCOCCN(C)C/C=C/C(=O)N4CCN(c5nc(OC[C@@H]6CCCN6C)nc6c5CCN(c5cccc7cccc(Cl)c57)C6)C[C@@H]4CC#N)cc3OC)nc2N1C1CCCC1 [Compound I-107, N-[2-[2-[2-[[(E)-4-[(2S)-4-[7-(8-chloro-1-naphthyl)-2-[[(2S)-1-methylpyrrolidin-2-yl]methoxy]-6,8-dihydro-SH-pyrido[3,4-d]pyrimidin-4-yl]-2-(cyanomethyl)piperazin-1-yl]-4-oxo-but-2-enyl]-methyl-amino]ethoxy]ethoxy]ethyl]-4-[[(7R)-8-cyclopentyl-7-ethyl-5-methyl-6-oxo-7H-pteridin-2-yl]amino]-3-methoxy-benzamide] | – | – | – | – | < 500 | < 500 | < 100
CC[C@@H]1C(=O)N(C)c2cnc(Nc3ccc(C(=O)NCCOCCOCCOCCOCCOCCOCCN(C)C/C=C/C(=O)N4CCN(c5nc(OC[C@@H]6CCCN6C)nc6c5CCN(c5cccc7cccc(Cl)c57)C6)C[C@@H]4CC#N)cc3OC)nc2N1C1CCCC1 [Compound I-109, N-[2-[2-[2-[2-[2-[2-[2-[[(E)-4-1[(2S)-4-1[7-(8-chloro-1-naphthyl)-2-[[(2S)-1-methylpyrrolidin-2-yl]methoxy]-6,8-dihydro-5Hpyrido1[3,4-d]pyrimidin-4-yl]-2-(cyanomethyl)piperazin-1-yl]-4-oxo-but-2-enyl]-methylamino]ethoxy]ethoxy]ethoxy]ethoxy]ethoxy]ethoxy]ethyl]-4-[[(7R)-8-cyclopentyl-7-ethyl-5-methyl-6-oxo-7H-pteridin-2-yl]amino]-3-methoxy-benzamide] | – | – | – | – | 1500 to 5000 | 500 to 1500 | < 100
CC[C@@H]1C(=O)N(C)c2cnc(Nc3ccc(C(=O)NCCOCCOC4CCN(C/C=C/C(=O)N5CCN(c6nc(OC[C@@H]7CCCN7C)nc7c6CCN(c6cccc8cccc(Cl)c68)C7)C[C@@H]5CC#N)CC4)cc3OC)nc2N1C1CCCC1 [Compound I-110, N-[2-[2-[[1-[(E)-4-[(2S)-4-[7-(8-chloro-1-naphthyl)-2-[[(2S)-1-methylpyrrolidin-2-yl]methoxy]-6,8-dihydro-5H-pyrido[3,4-d]pyrimidin-4-yl]-2-(cyanomethyl)piperazin-1-yl]-4-oxo-but-2-enyl]-4-piperidyl]oxy]ethoxy]ethyl]-4-[[(7R)-8-cyclopentyl-7-ethyl-5-methyl-6-oxo-7H-pteridin-2-yl]amino]-3-methoxy-benzamide] | – | – | – | – | 500 to 1500 | 500 to 1500 | < 100
C=CC(=O)Nc1cc(Nc2nccc(-c3cn(C)c4ccccc34)n2)c(OC)cc1N(C)CCN(C)CCOCCOCCOCCOCCOc1ccc(CNc2cc(N3CCCC[C@H]3CCO)nc3c(CC)cnn23)cn1 [Compound I-132] | 50 to 500 | < 50 | 50 to 500 | < 50 | < 500 | < 500 | –
C=CC(=O)N[C@@H]1CN(c2nc(Nc3cn(CCOCCOCCOCCOCCNS(=O)(=O)c4ccc(Nc5ncc(Br)c(Nc6cccc(F)c6C(N)=O)n5)cc4)nc3OC)c3ncn(C)c3n2)C[C@H]1F [Compound I-138, 2-[[5-bromo-2-[4-[2-[2-[2-[2-[2-[4-[[2-[(3R,4R)-3-fluoro-4-(prop-2-enoylamino)pyrrolidin-1-yl]-9-methyl-purin-6-yl]amino]-3-methoxy-pyrazol-1-yl]ethoxy]ethoxy]ethoxy]ethoxy]ethylsulfamoyl]anilino]pyrimidin-4-yl]amino]-6-fluoro-benzamide] | < 50 | < 50 | < 50 | 500 to 2500 | > 5000 | > 5000 | –
C=CC(=O)N[C@@H]1CN(c2nc(Nc3cn(CCOCCOCCOCCOCCOCCOCCNS(=O)(=O)c4ccc(Nc5ncc(Br)c(Nc6cccc(F)c6C(N)=O)n5)cc4)nc3OC)c3ncn(C)c3n2)C[C@H]1F [Compound I-143, 2-[[5-bromo-2-[4-[2-[2-[2-[2-[2-[2-[2-[4-[[2-[(3R,4R)-3-fluoro-4-(prop-2-enoylamino)pyrrolidin-1-yl]-9-methyl-purin-6-yl]amino]-3-methoxy-pyrazol-1-yl]ethoxy]ethoxy]ethoxy]ethoxy]ethoxy]ethoxy]ethylsulfamoyl]anilino]pyrimidin-4-yl]amino]-6-fluoro-benzamide] | < 50 | < 50 | < 50 | 500 to 2500 | > 5000 | > 5000 | –
